Assay results taken from patent US20050074488A1, “Use of vitamin Ds to down regulate the renin-angiotensin-aldosterone system” (priority 2003, published 2005).

Tests used:
[1] = tested on: PAI-1; assay: Western blot of PAI-1 in primary culture of human coronary artery smooth muscle cells; format: cell-based
[2] = tested on: renin mRNA expression; assay: Northern blot analysis of renin mRNA expression in As4.1-hVDR cells; format: cell-based
Procedure: (§1) Using an in vitro system, an examination was carried out in order to determine the ability of paricalcitol to suppress renin expression. […] This inhibitory activity is confirmed by renin promoter-luciferase assays, which examine the activity of paricalcitol to suppress renin gene transcription.

[3] = tested on: renin gene promotor; assay: renin promoter-luciferase assay; format: cell-based; settings: FIG. 2
Procedure: as §1

[4] = tested on: 24(OH)ase; assay: effect of drugs on the expression of 24(OH)ase; format: cell-based
Procedure: Two observations may be noted in these studies: (1) 100% inhibition of growth was never achieved even at 1 μM of any of the test compound. Confocal microscopy studies confirm that, although these drugs are potent in inducing the translocation of VDR from cytoplasm to nucleus, not all cells respond to VDRAs even after 2 h of exposure, which may explain the <100% inhibition.

[5] = cited from earlier work

suppressing the activity of the renin gene promotor, relative to calcitriol [3]	Structure (SMILES)	potency in reducing the PAI level [1]	renin-inhibiting activity relative to calcitriol ([2]; FIG. 1A and B)	inhibition of renin mRNA expression ([2]; Northern blot, FIG. 1)	potency on stimulating the expression of 24(OH)ase relative to calcitriol [4]	survival benefit for CKD patients relative to calcitriol ([5]; CKD patients)	potency in the clinical studies relative to calcitriol ([5]; clinical studies)
	C=C1/C(=C\C=C2/CCC[C@]3(C)[C@@H]([C@H](C)CCCC(C)(C)O)CC[C@@H]23)C[C@@H](O)C[C@@H]1O [calcitriol]	equally potent					
as least as potent as calcitriol	C[C@H](/C=C/[C@H](C)C(C)(C)O)[C@H]1CC[C@H]2/C(=C/C=C3C[C@@H](O)C[C@H](O)C3)CCC[C@]12C [paricalcitol]	equally potent	a bit more potent than calcitriol	dose-dependently inhibits renin mRNA expression	less potent than calcitriol	more profound for paricalcitol over calcitriol	less potent than calcitriol
